Source: article PMC3169411, “Structure of aldose reductase from Giardia lamblia” (Acta Crystallographica Section F: Structural Biology and …, 2011)

Biological target: T1, G. lamblia aldose reductase (Giardia duodenalis, UniProt A8BGX6)
T1 construct: gene GL50803_007260; full-length; E. coli BL21(DE3); observed Ser0-Asp313; dimer
T1 sequence (A8BGX6 1-313): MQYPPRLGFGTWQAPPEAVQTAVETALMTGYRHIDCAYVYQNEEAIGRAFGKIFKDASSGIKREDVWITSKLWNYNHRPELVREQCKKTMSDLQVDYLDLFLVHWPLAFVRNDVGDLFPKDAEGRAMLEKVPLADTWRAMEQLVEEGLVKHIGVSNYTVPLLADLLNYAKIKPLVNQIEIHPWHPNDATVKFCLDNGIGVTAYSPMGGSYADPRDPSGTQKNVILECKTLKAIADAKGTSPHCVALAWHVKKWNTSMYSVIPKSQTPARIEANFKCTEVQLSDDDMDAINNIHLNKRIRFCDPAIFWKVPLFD
Experiment: X-ray crystallography, […] Å
Type: binding
Settings: co-purified (none added); crystals from 20% PEG 3350, 200 mM sodium formate, 100 mM Bis-Tris propane; cofactor site, Arg269 and His242

Structure (SMILES): NC(=O)c1ccc[n+]([C@@H]2O[C@H](COP(=O)(O)OP(=O)(O)OC[C@H]3O[C@@H](n4cnc5c(N)ncnc54)[C@H](OP(=O)(O)O)[C@@H]3O)[C@@H](O)[C@H]2O)c1 [NADP^+]
- X-ray crystallography, 1.75 Å: One NADP^+ molecule and one ethylene glycol molecule were modelled in each chain
